Values after ≈ are worked out from the molar mass of the structure shown. Like-named read-outs stand apart in the source and are kept apart here. Non-standard residues stand in square brackets, D forms with d. Residues, ends and D or L forms follow the SMILES beside them. No end group written: not given here. Phg = N[C@H](C(=O)O)c1ccccc1 Some results are limits rather than exact numbers.

Series [1] has as its system methicin-resistant Staphylococcus aureus (MRSA) USA-300. The source says: (§1) The frequently used residues identified in each kingdom may be applied to peptide design in different ways. First, new antimicrobial peptides can be designed based on ‘templates derived from naturally occurring antimicrobial peptides’. […] Second, new antimicrobial peptides can be designed by ‘combining database-derived peptide motifs’, consisting of frequently used residues. Using the motifs consisting of only residues Gly, Leu and Lys, a second peptide was designed. […] Third, new peptides can be designed based on ‘amino acid percentages obtained from statistical analysis of antimicrobial peptides’ from a specific kingdom or peptide family. Thus, a third peptide was designed in three steps. (i) The amino acid composition for MULTI-18 was obtained by multiplying the percentage of each residue with the total number of residues (18 here) in the target peptide. […] (iii) Multiple peptides can be obtained by combining the above motifs. Only one peptide was designed by following the amphipathic pattern for helical peptides.

A further series has as its system E. coli K12.
Text: as §1

For a further series, the system named is CEM-SS cells. The series can be described thus: in vitro. Here is the method: (§2) Anti-HIV cytopathic effect inhibition assays were conducted as described (Buckheit et al. (1995) Antimicrob. Agents Chemother., 39:2718-2727). In brief, serially diluted peptides were added to a 96-well round bottom microtiter plate in triplicate. CEM-SS cells at a concentration of 2.5×10^3 cells per well and HIV-1IIIB at the appropriate pre-determined titer were sequentially added to the microtiter plate. The cultures were incubated at 5% CO2/37° C. for six days. Following the incubation, the microtiter plates were stained with XTT tetrazolium dye to evaluate the efficacy and toxicity of the test compound(s).
as §2, with “Cytopathic Effect (CPE) Inhibition Assay: The CPE assay was performed” for “Anti-HIV cytopathic effect inhibition assays were conducted”, “as previously” for “as”, “Briefly,” for “In brief,”, “compound was” for “peptides were”

For a further series, the system named is HIV-1IIIB. Nature of the series: microbe, parasite or virus in culture. Here is the method:
as §2
as §2, with “Cytopathic Effect (CPE) Inhibition Assay: The CPE assay was performed” for “Anti-HIV cytopathic effect inhibition assays were conducted”, “as previously” for “as”, “Briefly,” for “In brief,”, “compound was” for “peptides were”

A further series is described as follows: in vitro. The conditions noted are these: human. Here is the method: as §2
as §2, with “Cytopathic Effect (CPE) Inhibition Assay: The CPE assay was performed” for “Anti-HIV cytopathic effect inhibition assays were conducted”, “as previously” for “as”, “Briefly,” for “In brief,”, “compound was” for “peptides were”

The test system of a further series is HIV. The following applies: literature; cited from earlier work.
Where [2] appears, read: >100 μg/ml defined as HIV inactive.
[3] abbreviates: Table 4, LL-37-derived peptides, CEM-SS cells.

On to GLKKLLGKLLKKLGKLLLK [GLK-19], for which the half-maximal inhibitory concentration (IC50) worked out at 160 µM in series [1] (USA-300) and 10 µM with E. coli K12 (K12). This molecule registered a CC50 with CEM-SS cells of 25.1 µM. In the series with HIV-1IIIB (1IIIB), the EC50 is more than 47.5 µM.

The molecule GRFKRIRKKLKKLFKKIS-NH2 [BMAP-18I6L10] displayed a CC50 at 6 days in the series “in vitro” of 2.79 µM. For the same molecule, the EC50 with HIV-1IIIB (Table 5, BMAP-27-derived peptides, CEM-SS cells) was more than 44 µM.

SKEKIGKEFKRIVQRIKDFLR [SK-21] returned a CC50 at 6 days in the series “in vitro” (CEM-SS cells) of 22.5 µM. Moreover, in the series on HIV-1IIIB, the “anti-HIV activity in words” value is on record as “active against HIV”. Besides, the results for the 50% effective concentration (EC50) in the series with HIV-1IIIB (setting [2]) and in the series with HIV-1IIIB (setting [3]) were 28.5 µg/mL and 10.8 µM, respectively.

Take `CC[C@H](C)[C@H](NC(=O)[C@H](CCCNC(=N)N)NC(=O)[C@H](CCC(N)=O)NC(=O)[C@@H](NC(=O)[C@@H](NC(=O)[C@H](CCCNC(=N)N)NC(=O)[C@H](CCCCN)NC(=O)[C@H](Cc1ccccc1)NC(=O)CN)[C@@H](C)CC)C(C)C)C(=O)N[C@@H](CCCCN)C(=O)N[C@@H](CC(=O)O)C(=O)N[C@@H](Cc1ccccc1)C(=O)N[C@@H](CC(C)C)C(=O)N[C@@H](CCCNC(=N)N)C(=O)N[C@@H](CC(N)=O)C(=O)N[C@@H](CC(C)C)C(=O)N[C@H](C(N)=O)C(C)C` [GF-17]: in the series with CEM-SS cells, the CC50 was determined as 10.8 µM. In the series “in vitro”, this molecule yielded a CC50 at 6 days of 8.9 µM. The molecule further returned a CC50 at 144 h in “in vitro” (CEM-SS cells) of 18.7 µg/mL (≈ 8.9 µM).

Molecule “FLFPLITSFLSKVL [Ranatuerin 9, reference compound]” came in with a CC50 in the series “in vitro” of 34.6 µM. Moreover, the EC50 in the series on HIV-1IIIB (1IIIB) is 16.7 µM.

In the case of GIKQFKRIVQRIKDFLRNLV-NH2 [GI-20Q16], the CC50 at 6 days in the series “in vitro” stood at 13.7 µM. Also, in the series with HIV-1IIIB (setting [3]), the EC50 worked out at 0.91 µM.

Molecule GIKEFKRIVQRIKDFLRNLV-NH2 [GI-20] returned a CC50 at 6 days in the series “in vitro” of 22.7 µM. Also, the EC50 in the series on HIV-1IIIB (setting [3]) was 1.08 µM.

In the series “in vitro” (CEM-SS cells), `CC[C@H](C)[C@H](NC(=O)CN)C(=O)N[C@@H](CCCCN)C(=O)N[C@@H](CCC(=O)O)C(=O)N[C@H](C(=O)N[C@@H](CCCCN)C(=O)N[C@@H](CCCNC(=N)N)C(=O)N[C@H](C(=O)N[C@H](C(=O)N[C@@H](CCC(N)=O)C(=O)N[C@@H](CCCNC(=N)N)C(=O)N[C@H](C(=O)N[C@@H](CCCCN)C(=O)N[C@@H](CC(=O)O)C(=O)N[C@@H](Cc1ccccc1)C(=O)N[C@@H](CC(C)C)C(=O)N[C@@H](CCCNC(=N)N)C(=O)N[C@@H](CC(N)=O)C(=O)N[C@@H](CC(C)C)C(=O)N[C@H](C(N)=O)C(C)C)[C@@H](C)CC)C(C)C)[C@@H](C)CC)c1ccccc1` [GI-20X17, GIKEXKRIVQRIKDFLRNLV] (H-GIKE[Phg]KRIVQRIKDFLRNLV-NH2) displayed a CC50 at 6 days of 7.3 µM. This molecule also had a concentration giving a half-maximal response (EC50) with HIV-1IIIB (setting [3]) of more than 40.6 µM.

As to KKLLKKLKKLLK [KL-12], the “inactive against MRSA USA-300 until” value in series [1] was more than 160 mM. Besides, the “inactive against E. coli K12 until” value in the series on E. coli K12 is listed as more than 160 mM.

On to “indolicidin (ILPWKWPWWPWRR; ends and bridges not checked; UniProt P33046 131-143, looked up) [bovine Trp- and Pro-rich cathelicidin peptide]”, for which the “concentration required to be effective against HIV” value in the series on HIV is 333 µg/mL.

Take FKRIVQRIKDFLR-NH2 [FK-13]: in the series “in vitro”, the CC50 at 6 days stood at 10.4 µM. Besides, the concentration for a half-maximal effect (EC50) in the series with HIV-1IIIB (setting [2]) is 5.9 µg/mL; with HIV-1IIIB (setting [3]) it was 3.4 µM.

`Cc1cn([C@H]2C[C@H](N=[N+]=[N-])[C@@H](CO)O2)c(=O)[nH]c1=O` [AZT, reference compound] gave a CC50 in the series with CEM-SS cells (human, 6 days) of more than 0.5 µM. The molecule further came in with a CC50 at 6 days in the series “in vitro” of more than 0.5 µM. Also, the concentration for a half-maximal effect (EC50) in the series with HIV-1IIIB (Human immunodeficiency virus 1) was 0.007 µM; in the series on HIV-1IIIB (Human immunodeficiency virus 1, CEM-SS), 0.007 µM.

What is called IC50 is the concentration needed to halve the response being measured. As a reminder, the EC50 is the concentration at which the effect is half-maximal. A lower EC50 goes with a more potent agent.

(Values after patent US8722616B2, “Anti-HIV peptides and methods of use thereof” (priority 2009, dated 2014).)
